Measured values: ChEMBL document CHEMBL3637782, “GSK Tres Cantos Follow-up TB Screening Data” (2016)
Converted amounts (≈) assume the structure as drawn.

Tested on: Mycobacterium tuberculosis H37Rv
Assay: GSK_TB: Minimum inhibitory concentration against isoniazid and rifampicin resistant clinical isolates of Mycobacterium tuberculosis
Type: functional
Conditions: ATCC25618

Structure (SMILES) | MIC [µM]
COc1ccc(CCNC(=O)C2(n3cnnn3)CCCCC2)cc1 | 2.5 (≈ 0.824 µg/mL)
CN(Cc1ccc(Cl)cc1)C(=O)CCc1nc2ccccc2oc1=O | 1.3 (≈ 0.464 µg/mL)
COc1ccc(-c2nnc3sc(Cc4csc(C)n4)nn23)cc1 | 1.3 (≈ 0.446 µg/mL)
CNc1snc(C)c1C(=O)NCCOc1ccc(OC)cc1 | 0.9 (≈ 0.289 µg/mL)
NC(=O)c1ccc(CN(C2CC2)S(=O)(=O)c2ccccc2F)cc1 | 5 (≈ 1.74 µg/mL)
O=C(Nc1nc2c(s1)CCCc1cccnc1-2)c1ccccc1C(F)(F)F | 1.3 (≈ 0.506 µg/mL)
Clc1nnc(N2CCCC2)c2ccccc12 | 0.6 (≈ 0.14 µg/mL)
CCOCn1ccc(NS(=O)(=O)c2ccc(N)cc2)nc1=O | 20 (≈ 6.49 µg/mL)
Nc1ccc(C(O)CNCCc2ccccc2)cc1O (centres undefined) | 1.3 (≈ 0.354 µg/mL)
